Common to all, as to type: cell-based
For experiment [1], the system named is Pseudomonas aeruginosa CIP A-22. Nature of the experiment: MIC in microtitre plates, Pseudomonas aeruginosa. The conditions noted are these: Pseudomonas aeruginosa, CIPA22; Table 1; CIP A-22; 48 hours at 37° C.; ≦20% growth; read-out: MIC Pseudomonas aeruginosa. The protocol: (§1) Determination of Antimicrobial Activity in Accordance with the Microtitre Plate Method Determination of the Minimum Inhibitory Concentration (MIC value) in Microtitre Plates casein-soybean flour-peptone bouillon for the preparation of the precultures of the test bacteria and yeast. Pseudomonas aeruginosa CIP A-22 The test substances are predissolved in dimethyl sulfoxide (DMSO) and tested in a dilution series of 1:2. Bacteria and yeast are cultured overnight in CASO bouillon, the mould on mycological slant agar and rinsed off with 10 ml of 0.85% sodium chloride solution (+0.1% TritonX-100). All test organisms are adjusted to an organism count of 1-5*10^6 CFU/ml with 0.85% sodium chloride solution. The test substances are prepipetted into microtitre plates in an amount of 8 μl per well. Previously diluted test organism suspensions are diluted 1:100 in CASO bouillon (bacteria and yeast) and Sabouraud 2% glucose bouillon (mould) and added to the test substances in an amount of 192 μl per well. The test batches are incubated for 48 hours at 37° C. (bacteria and yeast) or for 5 days at 28° C. (mould). After incubation, the growth is determined by reference to the turbidity of the test batches (optical density) at 620 nm in a microplate reader. The minimum inhibitory concentration (MIC value) is the concentration of substance at which (compared with the growth of the control) an appreciable inhibition of the growth (≦20% growth) of the test organisms is ascertained. One microtitre plate is used for each test organism and substance concentration. All substances are tested in duplicate.

The test system of experiment [2] is Aspergillus niger ATCC 6275. The experiment in a line: MIC in microtitre plates, Aspergillus niger. The conditions noted are these: Aspergillus niger, ATCC6275, 120 h; Table 1; ATCC 6275; 5 days at 28° C.; ≦20% growth; read-out: MIC Aspergillus niger. The protocol:
as §1, with “Mycological slant agar” for “casein-soybean flour-peptone bouillon”, “preculture” for “preparation”, “moulds. Aspergillus niger ATCC 6275” for “the precultures of the test bacteria and yeast. Pseudomonas aeruginosa CIP A-22”

Experiment [3] concerns Rhizopus stolonifer DSM 63011. The experiment in a line: MIC in microtitre plates, Rhizopus stolonifer. The conditions noted are these: DSM63011, 120 h, Table 1, 5 days at 28° C., ≦20% growth. As for the experimental part: as §1, with “Mycological slant agar” for “casein-soybean flour-peptone bouillon”, “preculture” for “preparation”, “moulds. Rhizopus stolonifer DSM 63011” for “the precultures of the test bacteria and yeast. Pseudomonas aeruginosa CIP A-22”, “The minimum inhibitory concentration (MIC value) is the concentration of substance at which (compared with the growth of the control) an appreciable inhibition of the growth (≦20% growth) of the test organisms is ascertained. One microtitre plate is used for each test organism and substance concentration. All substances are tested in duplicate.” left out

Experiment [4] relates to Penicillium expansum ATCC 36200. The experiment in a line: MIC in microtitre plates, Penicillium expansum. The conditions noted are these: ATCC36200, 120 h, Table 1, 5 days at 28° C., ≦20% growth. The protocol: as §1, with “Mycological slant agar” for “casein-soybean flour-peptone bouillon”, “preculture” for “preparation”, “moulds. Penicillium expansum ATCC 36200” for “the precultures of the test bacteria and yeast. Pseudomonas aeruginosa CIP A-22”, “The minimum inhibitory concentration (MIC value) is the concentration of substance at which (compared with the growth of the control) an appreciable inhibition of the growth (≦20% growth) of the test organisms is ascertained. One microtitre plate is used for each test organism and substance concentration. All substances are tested in duplicate.” left out

One may read the MIC as the lowest concentration found to suppress growth.

As to `O=C(CC(=O)c1ccccc1O)c1ccco1` [Compound of formula (101)], the MIC in experiment [1] is greater than 1000 µg/mL; in experiment [2] it was 100 µg/mL; in experiment [3], 50 µg/mL; in experiment [4], 100 µg/mL.
